# From patent US12501899B2, “Mite infestation treatment” (priority 2019, dated 2025)
# Where a name gives a salt, the structure may show the parent alone. Read-outs that look alike come from different tables or passages of the source.
# Tests used:
# bees (Apis mellifera) = conditions: for bees killed / bee mortality / bees killed: 1 μL on bee thorax; for bees killed / bee mortality: time not stated (monitored up to 24 hours); for mortality / toxicity for the bees: after 24 hours
# Protocol: (§1) The bees were then dispatched in the boxes (10 per box).
# (§2) The bees were then put to sleep for a few minutes using CO2 (flow of 3 liters for 20 seconds) in order to deposit 1 μL of compound to be tested on their thorax using a pipette. It should be noted that the bees which received romifidine hydrochloride at a concentration of 10 μg/μL received 2 μL of product. The bees were unconscious for the time the compound to be tested was deposited, that is to say around three minutes, then they woke up.
# (§3) After thoracic deposition of the compound to be tested, the 10 bees from the same box were transferred to a box containing the 10 Varroa mites (cf. “Preparation of Varroa mites” above). Liquid sugar was left in each of the boxes to feed the bees during the observations. The series of boxes was then placed in an oven at […] with a humidity of 50% in order to approximate hive conditions as closely as possible.
# (§4) The mortality of Varroa mites and bees was then monitored 5 minutes, 2 hours, 4 hours and 24 hours after application of the compound to be tested to the bees. Dead Varroa mites correspond to Varroa mites detached from the bees. Dead bees correspond to bees which no longer move and which are often placed on their thorax.
# (§5) The following compositions were applied to the thorax of the bees: • Solvent, • Amitraz at 1 μg/μL in acetone, • Clonidine hydrochloride at 100 μg/μL, 10 μg/μL, 1 μg/μL and 0.1 μg/μL in methanol, • Detomidine hydrochloride monohydrate at 1 μg/μL in methanol, • Dexmedetomidine hydrochloride at 100 μg/μL, 10 μg/μL, 1 μg/μL and 0.1 μg/μL in methanol, • Romifidine hydrochloride at 10 μg/μL and at 5 μg/μL in methanol, • Tizanidine hydrochloride at 1 μg/μL in methanol, • Medetomidine hydrochloride at 0.1 μg/μL in ethanol, • Levomedetomidine hydrochloride at 100 μg/μL, 10 μg/μL, 1 μg/μL and 0.1 μg/μL in methanol, • Octopamine at 1 μg/μL in ethanol. Results
# Varroa destructor = test system: Varroa destructor
# Protocol: About 300 bees (Apis mellifera) infected with Varroa destructor were taken from a hive superinfected with Varroa destructor. The bees were then placed in a device allowing to detach Varroa mites attached to the bees (device described in Community model n° 003419415-0001) filled with icing sugar. The device was stirred for 2 minutes to sample the Varroa mites attached to the bees. The icing sugar allows to interfere between the bee and the Varroa mite that was attached thereto. Varroa mites were harvested with icing sugar because they pass through the holes in the device, unlike bees. The Varroa mites were then separated from the icing sugar.
# The Varroa mites thus recovered were dispatched in boxes (10 Varroa mites per box).
# as §1, §2, §3, §4, §5
smiles,measurement,setting,value
"Clc1cccc(Cl)c1NC1=NCCN1 [Clonidine hydrochloride, N-(2,6-dichlorophenyl)-4,5-dihydro-1H-imidazol-2-amine]",bees killed / bee mortality,bees (Apis mellifera); 1 μg/μL,zero mortality
same,bees killed,bees (Apis mellifera); 10 μg/μL,10%
same,bees killed,bees (Apis mellifera); 100 μg/μL,10%
same,kinetics of the Varroacid effect (in words),Varroa destructor; full efficiency after 24 hours,rather slow compared to the positive control
"Cc1cccc(Cc2cnc[nH]2)c1C [Detomidine hydrochloride monohydrate, 4-[(2,3-dimethylphenyl)-methyl]-3H-imidazole]",mortality for the bees,"bees (Apis mellifera); 1 μg/μL, after 2 hours",without mortality
same,mortality / toxicity for the bees,bees (Apis mellifera); 1 μg/μL,without mortality
same,Varroa mites killed,"Varroa destructor; 1 μg/μL, after 2 hours",40%
same,Varroa mites killed / Varroa mite mortality,"Varroa destructor; 1 μg/μL, after 24 hours",100%
NCC(O)c1ccc(O)cc1 (stereo not drawn) [Octopamine],bees killed / bee mortality,bees (Apis mellifera); 1 μg/μL,zero
same,Varroacid effect (in words),Varroa destructor; 1 μg/μL in ethanol,No Varroacid effect
"Fc1cccc(Br)c1NC1=NCCN1 [Romifidine hydrochloride, N-(2-bromo-6-fluorophenyl)-4,5-dihydro-1H-imidazol-2-amine]",Bee mortality,"bees (Apis mellifera); all doses (10 and 5 μg/μL), even after 24 hours",zero
same,mortality of Varroa mites,"Varroa destructor; 5 μg/μL, 24 hours, compared with 10 μg/μL at 4 hours",same level of mortality
same,mortality of Varroa mites,"Varroa destructor; 2 μl of product at 10 μg/μL, after 2 hours",75%
same,mortality of Varroa mites,"Varroa destructor; 2 μl of product at 10 μg/μL, after 4 hours",95%
"Clc1ccc2nsnc2c1NC1=NCCN1 [Tizanidine hydrochloride, 4-Chloro-N-(4,5-dihydro-1H-imidazol-2-yl)-8-thia-7,9-diazabicyclo, nona-2,4,6,9-tetraen-5-amine]",mortality / toxicity for the bees,bees (Apis mellifera); 1 μg/μL,without toxicity
